{"source": "paper PMC8147293", "about": "“Library of Selenocyanate and Diselenide Derivatives as In Vivo Antichagasic Compounds Targeting Trypanosoma cruzi Mitochondrion” (Pharmaceuticals, 2021)", "key": {"[1]": {"molecular_target": "T1, human erythrocytes CuZn-SOD (Homo sapiens, UniProt P00441)", "T1 construct": "commercial Cu/Zn-SOD from human erythrocytes (Sigma-Aldrich); purchased Sigma-Aldrich; host or cells: human erythrocytes", "T1 sequence (P00441 whole entry)": "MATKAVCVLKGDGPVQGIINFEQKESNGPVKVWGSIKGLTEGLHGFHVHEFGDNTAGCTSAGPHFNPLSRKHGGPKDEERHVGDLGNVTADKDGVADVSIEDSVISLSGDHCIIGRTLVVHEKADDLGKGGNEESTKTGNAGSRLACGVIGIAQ", "experiment": "SOD enzymatic inhibition, CuZn-SOD", "assay_type": "biochemical", "settings": "100 to 0.1 µM, read-out: CuZn-SOD IC50 (in brackets)", "method": "Excreted Fe-SOD protein—obtained and quantified as previously described [64]—and commercial Cu/Zn-SOD from human erythrocytes (Sigma-Aldrich) were exposed to the tested compounds at a concentration range from 100 to 0.1 µM to determine in vitro activities using the method previously described."}, "[2]": {"test_system": "Trypanosoma cruzi bloodstream trypomastigotes (BTs)", "experiment": "Screening against bloodstream trypomastigotes (resazurin)", "assay_type": "cell-based", "method": "2 × 10^6 Bloodstream trypomastigotes (BTs), obtained by cardiac puncture from infected BALB/c mice as previously described, were treated by adding the tested compounds at a concentration range from 50 to 0.1 µM in 96-well microplates (200 µL·well^−1) at 37 °C. After 24 h of treatment, resazurin sodium salt (Sigma-Aldrich) was added to be incubated for further 4 h. Finally, trypanocidal activity was determined following the same procedure as described to assess the trypanocidal activity in the epimastigotes. Each compound concentration was tested in triplicate in three independent experiments."}, "Trypanosoma cruzi": {"test_system": "Trypanosoma cruzi", "experiment": "Parasitemia reactivation after immunosuppression in BALB/c mice", "assay_type": "in vivo", "settings": "20 mg/kg per day for 5 days, compared to untreated mice", "method": "Secondly, the experimental cure was determined using a double checking widely used in in vivo trypanocidal trials. This double checking—based on immunosuppression and PCR (Figure 2B,C, respectively)—was performed to evaluate the treatment effectiveness and the disease extent in both acute and chronic CD at the end of the in vivo timeline. The mice whose parasitemia and PCR remain negative after immunosuppression are considered cured.\nImmunosuppression enhances the reactivation of any residual infection, which is proportional to the parasite survival rate.\nInfection was carried out by intraperitoneal inoculation of 5 × 10^5 BTs of T. cruzi per mouse in 0.2 mL PBS [56]. The mice were treated by oral route (~200 µL) once daily for 5 consecutive days. The treatment for mice treated in the acute and chronic phases began when the infection was confirmed (9th day post-infection (dpi)) and was established that the animals had entered the chronic phase (100th dpi), respectively.\nThe mice were divided into six groups (n = 3 per group): 0, negative control group (uninfected and untreated mice); I, positive control group (infected and untreated mice); II, BZN group (mice infected and treated with BZN); III, 8 group (mice infected and treated with 8); IV, 10 group (mice infected and treated with 10); V, 15 group (mice infected and treated with 15). The tested compounds and BZN were prepared at 2 mg·mL^−1 in an aqueous suspension vehicle containing 5% (v/v) DMSO and 0.5% (w/v) hydroxypropyl methylcellulose, as previously reported. Therefore, doses of 20 mg·kg^−1 per day were administered for 5 consecutive days, and vehicle only was administered in the negative and positive control groups.\nAll in vivo assays for the evaluation of compounds in the acute and chronic CD (Scheme 1)—monitoring of parasitemia, immunosuppression, PCR [59, 60], ELISA [56], and clinical analysis [56]—were performed as previously described. PCR was based on the Spliced Leader (SL) intergenic region sequence of T. cruzi (for detailed description, see literature reported previously)."}, "Mammalian Vero cells": {"test_system": "Mammalian Vero cells", "experiment": "Cytotoxicity test on Vero cells (resazurin)", "assay_type": "cell-based", "settings": "Chlorocebus sabaeus, 72 h; Table 1; Vero cells, 48 h + 24 h resazurin; read-out: Toxicity IC50 Vero Cell", "method": "Mammalian Vero cells (EACC No. 84113001), cultured as previously reported, were used to determine the cytotoxicity of the tested compounds [56]. In short, 1.25 × 10^4 Vero cells·mL^−1 were treated by adding the compounds at a concentration range from 400 to 1 µM in 96-well microplates (200 µL·well^−1) at 37 °C for 48 h. Subsequently, resazurin sodium salt (Sigma-Aldrich) was added to be incubated for further 24 h. Finally, cell viability was determined following the same procedure as described to assess the trypanocidal activity in the epimastigotes. Each compound concentration was tested in triplicate in three independent experiments."}, "[3]": {"test_system": "epimastigotes of T. cruzi Arequipa", "experiment": "1H NMR analysis of excreted metabolites", "assay_type": "cell-based, Trypanosoma cruzi", "settings": "IC25 concentrations, 72 h", "method": "5 × 10^5 epimastigotes·mL^−1 of T. cruzi Arequipa were treated by adding the tested compounds at IC25 concentrations in 25 cm^2 cell culture flasks at 28 °C for 72 h. Untreated controls were also included. Cultures were then centrifuged and filtered, and the metabolites of the supernatants were analyzed using a ^1H NMR spectrometer (VARIAN DIRECT DRIVE 500 MHz […]) with AutoX probe, D2O as solvent and 2,2-dimethyl-2-silapentane-5-sulphonate as the reference signal. Chemical shifts were expressed in parts per million (ppm), and analyses were conducted as previously reported."}}, "data": [{"compound": "FC(F)(F)c1ccc(C[Se][Se]Cc2ccc(C(F)(F)F)cc2)cc1", "note": "[compound 8]", "values": [{"measurement": "IC50", "setting": "[1]", "value": "> 100", "unit": "µM"}, {"measurement": "Selectivity Index Trypomast.", "setting": "[2]; IC50 Vero cells/IC50 trypomastigotes", "value": 30}, {"measurement": "IC50", "setting": "[2]; Trypanosoma cruzi, Table 1, bloodstream trypomastigotes, 24 h treatment + 4 h resazurin, read-out: Activity IC50 Trypomast.", "value": "1.5 ± 0.3", "unit": "µM"}, {"measurement": "reactivation of infection after immunosuppression", "setting": "Trypanosoma cruzi; mice treated in acute CD", "value": 67, "unit": "%"}, {"measurement": "reactivation of infection after immunosuppression", "setting": "Trypanosoma cruzi; mice treated in chronic CD", "value": 44, "unit": "%"}, {"measurement": "CC50", "setting": "Mammalian Vero cells", "value": "44.3 ± 2.7", "unit": "µM"}, {"measurement": "variation of excreted metabolites versus untreated parasites", "setting": "[3]", "value": "< 10", "unit": "%"}]}]}
